Experimental data reported in patent EP0561913B1, “USE OF PYRIDINE DERIVATIVES IN THE TREATMENT OF OCULAR HYPERTENSION” (ALLERGAN, INC., priority 1990, dated 1992).
“Also recorded” adds a separate entry of the source. Read-outs that look alike come from different tables or passages of the source. Each block holds one compound with its values, some of them ahead of it.

Legend:
rabbits [1] = experiment: Pupil diameter (miosis), intracameral injection
Procedure: (§1) Pyridine-1,2,3,6-tetrahydro-5-(5-isoxazolyl)-1-methyl-ethanedioate ("test compound") or pilocarpine were applied either topically into the eyes of owl monkeys (200 µg in 10 µl) or intracamerally into the eye of rabbits (10 µg in 20 µl). Control animals were treated with a saline vehicle. Pupil diameter and IOP were measured for 0-6 hours. IOP was measured using pneumatometer (Digilab/ Biorad) and pupil diameter was measured using Optistick ruler (Allergan). Animals used in these studies had normal intraocular pressure.
(§2) Muscarinic activity was determined by treatment with atropine (muscarinic antagonist). In rabbits 5 µg atropine was coinjected with the test compounds and in owl monkey 5 µg atropine (10 µl) was applied 30 minutes before treatment with the test compound.
(§3) Intraocular pressure (mmHg) or pupil diameter (mm) were expressed as changes from time 0.

[2] = test system: cat ciliary smooth muscle; experiment: In vitro contraction of isolated ciliary smooth muscle in organ bath; type: cell-based; conditions: for EC50: cumulative dose response, 37°C, read-out: ED50 (concentration that caused 50% of maximum contraction)
Procedure: (§4) Iris sphincter and ciliary smooth muscles were excised from freshly enucleated cat eyes. The tissues were placed in an organ bath containing Tyrode's solution (composition in mM: NaCl 137, KCl 2.7, CaCl2 1.8, MgCl2 1.05, NaHCO3 11.9, NaH2PO4 0.42, D-glucose 5.6) at 37°C, aerated with 95% oxygen and 5% carbon dioxide. One end of the tissue was fastened to a hook in the bath and the other end was attached to a force displacement transducer connected to a polygraph. The tissues were allowed to equilibrate for 60 minutes under a load of 100-200 mg tension. […] Increasing concentrations of the test compound (0.1 - 1000 µM) were then added into the bath to generate cumulative dose response. […] Results were from three or more experiments expressed as mean ± S.E.

owl monkeys [3] = experiment: In vivo study of intraocular pressure reducing activity, topical application
Procedure: as §1, §2, §3

[4] = test system: cat iris sphincter smooth muscle; experiment: In vitro contraction of isolated iris sphincter smooth muscle in organ bath; type: cell-based; conditions: for EC50: cumulative dose response, 37°C, read-out: ED50 (concentration that caused 50% of maximum contraction)
Procedure: as §4

rabbits [5] = experiment: In vivo study of intraocular pressure reducing activity, intracameral injection
Procedure: as §1, §2, §3

owl monkeys [6] = experiment: Pupil diameter (miosis), topical application
Procedure: as §1, §2, §3

rabbits [7] = conditions: normotensive rabbits or humans, from literature; cited from earlier work
[8] = topical 5 µg/10 µl atropine, test compound 200 µg/10 µl

- miosis (rabbits [1]; intracameral 10 µg/20 µl, effect of pilocarpine greater than that of the test compound): caused miosis
- time of maximum miotic response (rabbits [1]; intracameral 10 µg/20 µl, followed by recovery): 0.5 h
- EC50 [2]: 30 µM
- EC50 ([4]; cat iris sphincter muscle): 20 µM
- miosis, decrease in pupil size (owl monkeys [6]; topical 200 µg/10 µl, at 1 hour): 48%
- miosis, recovered to % of 0 time (owl monkeys [6]; topical 200 µg/10 µl, within 3 to 6 hours): 15%
Structure (SMILES): CN1CCC=C(c2ccno2)C1.O=C(O)C(=O)O [test compound, Pyridine-1,2,3,6-tetrahydro-5-(5-isoxazolyl)-1-methyl-ethanedioate]
- maximum decrease in IOP (owl monkeys [3]; topical 200 µg/10 µl, after 5 and 6 hours): 4 mmHg
- duration of IOP reducing effect (owl monkeys [3]; topical 200 µg/10 µl, experimental period of 6 hours): > 6 h
- decrease in IOP (rabbits [5]; normotensive rabbits, intracameral 10 µg/20 µl, 5 hours after administration, change from time 0): 6 mmHg
- duration of IOP decreasing activity (rabbits [5]; rabbits, intracameral 10 µg/20 µl, experimental period ended at 6 hours): > 6 h

Structure (SMILES): CN1[C@@H]2CC[C@H]1C[C@@H](OC(=O)C(CO)c1ccccc1)C2 (some centres unmarked) [atropine]
- inhibition of miotic effect of the test compound by atropine (rabbits [1]; 5 µg atropine with test compound 10 µg/20 µl intracameral): completely inhibited
- inhibition of test compound-induced contraction by atropine ([2]; 10 nM atropine for 30 minutes before test compound): competitive inhibition
- inhibition of IOP reducing effect of the test compound by atropine (owl monkeys [3]; [8]): no inhibitory effect
- effect of atropine in inhibiting the response of the iris relative to the ciliary ([4]; 10 nM atropine, iris versus ciliary muscle): 2.5 times
- inhibition of test compound-induced contraction by atropine ([4]; cat iris sphincter muscle, 10 nM atropine for 30 minutes before test compound): competitive inhibition
- inhibition of IOP effect of the test compound by atropine (rabbits [5]; rabbits, 5 µg/20 µl atropine coinjected with test compound 10 µg/20 µl): partial inhibition
- inhibition of IOP effect of the test compound by atropine (rabbits [5]; rabbits, topical 0.5% atropine solution every 2 hours (data not shown)): no inhibitory effect
- inhibition of miotic effect of the test compound by atropine (owl monkeys [6]; [8]): completely inhibited

- EC50 ([2]; Felis catus): 4 µM
- EC50 ([4]; Felis catus, cat iris sphincter muscle): 4 µM
Structure (SMILES): CC[C@@H]1C(=O)OC[C@@H]1Cc1cncn1C [pilocarpine, (3S,4R)-3-ethyl-4-{(1-methyl-1H-imidazol-5-yl)methyl}-3,4-dihydro-2(3H)-furanone]
- decrease in IOP (rabbits [7]): little or no decrease
- decrease in IOP (owl monkeys [3]; topical 200 µg/10 µl, at 3 hours, effect decreased thereafter): about 3 mmHg
- effect on IOP (rabbits [5]; normotensive rabbits, intracameral 10 µg/20 µl, result in words): no hypotensive effect; also recorded: slight hypertensive action
